Measured values: patent publication US7230025B2, “Pyrazole derivatives” (Pfizer, Inc., priority 2002, dated 2007)
Like-named read-outs stand apart in the source and are kept apart here.

Biological target: T1, HIV-1 reverse transcriptase (Human immunodeficiency virus type 1 group M subtype B, UniProt P04585)
T1 construct: purified recombinant HIV-1 reverse transcriptase (RT, EC, 2.7.7.49) obtained by expression in Escherichia Coli; made in house; host or cells: Escherichia coli
Experiment: Inhibition of HIV-1 Reverse Transcriptase Enzyme
Type: biochemical
Source text: The activity of the compounds of the invention as reverse transcriptase inhibitors may be measured using the following assay.
Inhibition of HIV-1 Reverse Transcriptase Enzyme
Using purified recombinant HIV-1 reverse transcriptase (RT, EC, 2.7.7.49) obtained by expression in Escherichia Coli, a 96-well plate assay system is established for assaying a large number of samples using either the Poly(rA)-oligo(dT) Reverse Transcriptase [3H]-SPA enzyme assay system (Amersham NK9020) or the [3H]-flashplate enzyme assay system (NEN-SMP 103) and following the manufacturer's recommendations. The compounds are dissolved in 100% DMSO and diluted with the appropriate buffer to a 5% final DMSO concentration. The inhibitory activity is expressed in percent inhibition relative to DMSO control.

| Structure (SMILES) | IC50 [nM] | IC50 (purified recombinant HIV-1 RT expressed in Escherichia Coli, [3H]-SPA or [3H]-flashplate enzyme assay, 5% final DMSO, read-out: IC50) [nM] |
| --- | --- | --- |
| CCc1nn(C)c(Oc2ncc(Oc3ccc(OC)cc3)cn2)c1Oc1cc(C#N)cc(C#N)c1 [Example 6] | 391 | – |
| CCc1nn(C)c(Oc2ccccn2)c1Oc1cc(C#N)cc(C#N)c1 [Example 1, 5-[3-Ethyl-1-methyl-5-(pyridin-2-yloxy)-1H-pyrazol4-yloxy]-isophthalonitrile] | – | 5400 |
